This note sets out measurements from US7524980B2, “Vitamin D3 lactam derivative” (Teijin Pharma Limited, priority 2003, dated 2009).

In the assay the test system is HL-60 cell. The assay is described as follows: Vitamin D3 antagonist effect: suppression of HL-60 cell differentiation (NBT-reducing activity) induced by 1α,25-dihydroxyvitamin D3. Type of assay: cell-based. The conditions noted are these: simultaneous treatment with 1α,25-dihydroxyvitamin D3 1×10^−8 M; compound 1×10^−7 to 3×10^−6 M; 4 days; read-out: IC50 (suppression of NBT-reducing activity induction). From the text:
(1) HL-60 cell line which had been purchased from a cell bank (Japanese Cancer Research Resource Bank, Cell No: JCRB0085) was used. The cell line was stored as a frozen storage stock to prevent cell characteristic changes attributable to successive cultivations. Prior to the initiation of experiments, the cells were defrosted and successive culturing was stared. For the experiments, cells whose successive culturing was from one month to about a half year were used. The successive culturing was carried out by centrifugally collecting cells which were in the state of suspension culture, and diluting the collected cell concentrate with a fresh culture medium at a ratio of about 1/100 (1-2×10^4 cells/ml). As the culture medium, an RPMI-1640 medium containing 10% fetal bovine serum was used.
(2) The cells which were under successive culturing in the above process (1) were centrifugally collected, and they were dispersed in a culture medium at the cell concentration of 2×10^4 cells/ml. […]
(3) As the parameter of differentiation inducing effect on HL-60 cells, the induction of nitro blue tetrazolium (henceforth, NBT)-reducing activity was used. The NBT-reducing activity was determined according to the following procedure. […] After air drying, it was stained with Kernechrot, and the ratio of the positive cells of NBT reduction activity was determined under an optical microscope. […]

What is called IC50 is the midpoint of a concentration-inhibition curve. Take `C=C1C(=CC=C2CCCC3(C)C2CCC3C(C)CC2CC(C)(O)C(=O)N2CCc2ccccc2)CC(O)CC1O` (stereo not drawn) [Compound No. 61a, 1α,25-dihydroxyvitamin D3-26,23-lactam-N-(2-phenethyl)]: the IC50 is less than 100 nM.
